Assay results published in US20230321012A1 (priority 2021, published 2023).

Assays:
[1] = clinical
Method: Clinical Trial Outline. […] All solid tumor types are eligible for the trial. […] An expansion cohort was included at the RP2D level to confirm safety and tolerability of the combination. […] In Part 2, patients were treated by giving both agents twice daily (BID dosing schedule).
Plasma samples were analyzed for AMXT 1501 concentration via a LC/MS^2 procedure (MI-0028-DB-AB; Agilux Laboratories, Worcester, Massachusetts), and the resulting concentration versus time data were used to estimate individual PK parameters using noncompartmental analysis (NCA).

[2] = tested on: four tumor cell lines; assay: In vitro tumor cell growth inhibition by AMXT 1501; assay type: cell-based; conditions: equivalent of 51 nM
From the text: See Burns, M. R., et al., J Med Chem 52, 1983-1993 (2009), the entire content of which is incorporated herein by reference.

CCCCCCCCCCCCCCCC(=O)NCCCC[C@@H](N)C(=O)NCCCNCCCCNCCCN [AMXT 1501, D-lys(palmitoyl)-spermine]
AUC(0-t) ([1]; human, plasma, oral, 1200 mg, AUC0-6 hr Mean, Part 1 Cohort 4, 1200 mg QD, Cycle 1 Day 1): 197 ng·h/mL
AUC(0-t) ([1]; human, plasma, oral, 1200 mg, AUC0-6 hr Mean, Part 1 Cohort 4, 1200 mg QD, Cycle 1 Day 14): 1130 ng·h/mL
AUC(0-t) ([1]; human, plasma, oral, 1200 mg, AUC0-6 hr Median, Part 1 Cohort 4, 1200 mg QD, Cycle 1 Day 1): 238 ng·h/mL
AUC(0-t) ([1]; human, plasma, oral, 1200 mg, AUC0-6 hr Median, Part 1 Cohort 4, 1200 mg QD, Cycle 1 Day 14): 681 ng·h/mL
AUC(0-t) ([1]; human, plasma, oral, 1200 mg, AUC0-t Mean, Part 1 Cohort 4, 1200 mg QD, Cycle 1 Day 1): 2730 ng·h/mL
AUC(0-t) ([1]; human, plasma, oral, 1200 mg, AUC0-t Mean, Part 1 Cohort 4, 1200 mg QD, Cycle 1 Day 14): 4700 ng·h/mL
AUC(0-t) ([1]; human, plasma, oral, 1200 mg, AUC0-t Median, Part 1 Cohort 4, 1200 mg QD, Cycle 1 Day 1): 831 ng·h/mL
AUC(0-t) ([1]; human, plasma, oral, 1200 mg, AUC0-t Median, Part 1 Cohort 4, 1200 mg QD, Cycle 1 Day 14): 3490 ng·h/mL
Cmax ([1]; human, plasma, oral, 1200 mg, Cmax Mean, Part 1 Cohort 4, 1200 mg QD, Cycle 1 Day 1): 104 ng/mL
Cmax ([1]; human, plasma, oral, 1200 mg, Cmax Mean, Part 1 Cohort 4, 1200 mg QD, Cycle 1 Day 14): 276 ng/mL
Cmax ([1]; human, plasma, oral, 1200 mg, Cmax Median, Part 1 Cohort 4, 1200 mg QD, Cycle 1 Day 1): 71.2 ng/mL
Cmax ([1]; human, plasma, oral, 1200 mg, Cmax Median, Part 1 Cohort 4, 1200 mg QD, Cycle 1 Day 14): 227 ng/mL
Tmax ([1]; human, plasma, oral, 1200 mg, Tmax Mean, Part 1 Cohort 4, 1200 mg QD, Cycle 1 Day 1): 11.3 h
Tmax ([1]; human, plasma, oral, 1200 mg, Tmax Mean, Part 1 Cohort 4, 1200 mg QD, Cycle 1 Day 14): 6 h
Tmax ([1]; human, plasma, oral, 1200 mg, Tmax Median, Part 1 Cohort 4, 1200 mg QD, Cycle 1 Day 1): 6 h
Tmax ([1]; human, plasma, oral, 1200 mg, Tmax Median, Part 1 Cohort 4, 1200 mg QD, Cycle 1 Day 14): 6 h
AUC ([1]; human, plasma, oral, 1800 mg): 14200 ng·h/mL
AUC(0-t) ([1]; human, plasma, oral, 1800 mg, AUC0-6 hr Mean, Part 1 Cohort 5, 1800 mg QD, Cycle 1 Day 1): 750 ng·h/mL
AUC(0-t) ([1]; human, plasma, oral, 1800 mg, AUC0-6 hr Mean, Part 1 Cohort 5, 1800 mg QD, Cycle 1 Day 14): 3110 ng·h/mL
AUC(0-t) ([1]; human, plasma, oral, 1800 mg, AUC0-6 hr Mean, Part 1 Cohort 5, 1800 mg QD, Cycle 2 Day 14, n=1): 7240 ng·h/mL
AUC(0-t) ([1]; human, plasma, oral, 1800 mg, AUC0-6 hr Median, Part 1 Cohort 5, 1800 mg QD, Cycle 1 Day 1): 662 ng·h/mL
AUC(0-t) ([1]; human, plasma, oral, 1800 mg, AUC0-6 hr Median, Part 1 Cohort 5, 1800 mg QD, Cycle 1 Day 14): 3020 ng·h/mL
AUC(0-t) ([1]; human, plasma, oral, 1800 mg, AUC0-6 hr Median, Part 1 Cohort 5, 1800 mg QD, Cycle 2 Day 14, n=1): 7240 ng·h/mL
AUC(0-t) ([1]; human, plasma, oral, 1800 mg, AUC0-t Mean, Part 1 Cohort 5, 1800 mg QD, Cycle 1 Day 1): 10200 ng·h/mL
AUC(0-t) ([1]; human, plasma, oral, 1800 mg, AUC0-t Mean, Part 1 Cohort 5, 1800 mg QD, Cycle 1 Day 14): 14200 ng·h/mL
AUC(0-t) ([1]; human, plasma, oral, 1800 mg, AUC0-t Mean, Part 1 Cohort 5, 1800 mg QD, Cycle 2 Day 14, n=1): 33700 ng·h/mL
AUC(0-t) ([1]; human, plasma, oral, 1800 mg, AUC0-t Median, Part 1 Cohort 5, 1800 mg QD, Cycle 1 Day 1): 12700 ng·h/mL
AUC(0-t) ([1]; human, plasma, oral, 1800 mg, AUC0-t Median, Part 1 Cohort 5, 1800 mg QD, Cycle 1 Day 14): 12800 ng·h/mL
AUC(0-t) ([1]; human, plasma, oral, 1800 mg, AUC0-t Median, Part 1 Cohort 5, 1800 mg QD, Cycle 2 Day 14, n=1): 33700 ng·h/mL
Cmax ([1]; human, plasma, oral, 1800 mg, Cmax Mean, Part 1 Cohort 5, 1800 mg QD, Cycle 1 Day 1): 367 ng/mL
Cmax ([1]; human, plasma, oral, 1800 mg, Cmax Mean, Part 1 Cohort 5, 1800 mg QD, Cycle 1 Day 14): 794 ng/mL
Cmax ([1]; human, plasma, oral, 1800 mg, Cmax Mean, Part 1 Cohort 5, 1800 mg QD, Cycle 2 Day 14, n=1): 1950 ng/mL
Cmax ([1]; human, plasma, oral, 1800 mg, Cmax Median, Part 1 Cohort 5, 1800 mg QD, Cycle 1 Day 1): 374 ng/mL
Cmax ([1]; human, plasma, oral, 1800 mg, Cmax Median, Part 1 Cohort 5, 1800 mg QD, Cycle 1 Day 14): 766 ng/mL
Cmax ([1]; human, plasma, oral, 1800 mg, Cmax Median, Part 1 Cohort 5, 1800 mg QD, Cycle 2 Day 14, n=1): 1950 ng/mL
Tmax ([1]; human, plasma, oral, 1800 mg, Tmax Mean, Part 1 Cohort 5, 1800 mg QD, Cycle 1 Day 14): 5.5 h
Tmax ([1]; human, plasma, oral, 1800 mg, Tmax Mean, Part 1 Cohort 5, 1800 mg QD, Cycle 2 Day 14, n=1): 6 h
Tmax ([1]; human, plasma, oral, 1800 mg, Tmax Median, Part 1 Cohort 5, 1800 mg QD, Cycle 1 Day 1): 6 h
Tmax ([1]; human, plasma, oral, 1800 mg, Tmax Median, Part 1 Cohort 5, 1800 mg QD, Cycle 1 Day 14): 6 h
Tmax ([1]; human, plasma, oral, 1800 mg, Tmax Median, Part 1 Cohort 5, 1800 mg QD, Cycle 2 Day 14, n=1): 6 h
Cmax ([1]; human, plasma, oral, 1800 mg, average Cmax, plasma AMXT 1501, Part 1 Cohort 5, 1,800 mg, repeat dosing Day 14, n=4): 794 ng/mL
AUC(0-t) ([1]; human, plasma, oral, AUC0-6 hr Mean, Part 1 Cohort 1, 80 mg QD, Cycle 1 Day 28, +DFMO 500 mg/day): 60.5 ng·h/mL
AUC(0-t) ([1]; human, plasma, oral, AUC0-6 hr Mean, Part 1 Cohort 2, 160 mg QD, Cycle 1 Day 28, +DFMO 500 mg/day): 88.6 ng·h/mL
AUC(0-t) ([1]; human, plasma, oral, AUC0-6 hr Mean, Part 1 Cohort 3, 400 mg QD, Cycle 1 Day 28, +DFMO 500 mg/day): 234 ng·h/mL
AUC(0-t) ([1]; human, plasma, oral, AUC0-6 hr Mean, Part 1 Cohort 5, 1800 mg QD, Cycle 1 Day 28, +DFMO 500 mg/day): 1860 ng·h/mL
AUC(0-t) ([1]; human, plasma, oral, AUC0-6 hr Median, Part 1 Cohort 1, 80 mg QD, Cycle 1 Day 28, +DFMO 500 mg/day): 62.9 ng·h/mL
AUC(0-t) ([1]; human, plasma, oral, AUC0-6 hr Median, Part 1 Cohort 2, 160 mg QD, Cycle 1 Day 28, +DFMO 500 mg/day): 84.8 ng·h/mL
AUC(0-t) ([1]; human, plasma, oral, AUC0-6 hr Median, Part 1 Cohort 3, 400 mg QD, Cycle 1 Day 28, +DFMO 500 mg/day): 93.8 ng·h/mL
AUC(0-t) ([1]; human, plasma, oral, AUC0-6 hr Median, Part 1 Cohort 5, 1800 mg QD, Cycle 1 Day 28, +DFMO 500 mg/day): 1430 ng·h/mL
AUC(0-t) ([1]; human, plasma, oral, AUC0-t Mean, Part 1 Cohort 1, 80 mg QD, Cycle 1 Day 28, +DFMO 500 mg/day): 169 ng·h/mL
AUC(0-t) ([1]; human, plasma, oral, AUC0-t Mean, Part 1 Cohort 2, 160 mg QD, Cycle 1 Day 28, +DFMO 500 mg/day): 150 ng·h/mL
AUC(0-t) ([1]; human, plasma, oral, AUC0-t Mean, Part 1 Cohort 3, 400 mg QD, Cycle 1 Day 28, +DFMO 500 mg/day): 791 ng·h/mL
AUC(0-t) ([1]; human, plasma, oral, AUC0-t Mean, Part 1 Cohort 5, 1800 mg QD, Cycle 1 Day 28, +DFMO 500 mg/day): 7370 ng·h/mL
AUC(0-t) ([1]; human, plasma, oral, AUC0-t Median, Part 1 Cohort 1, 80 mg QD, Cycle 1 Day 28, +DFMO 500 mg/day): 62.9 ng·h/mL
AUC(0-t) ([1]; human, plasma, oral, AUC0-t Median, Part 1 Cohort 2, 160 mg QD, Cycle 1 Day 28, +DFMO 500 mg/day): 112 ng·h/mL
AUC(0-t) ([1]; human, plasma, oral, AUC0-t Median, Part 1 Cohort 3, 400 mg QD, Cycle 1 Day 28, +DFMO 500 mg/day): 422 ng·h/mL
AUC(0-t) ([1]; human, plasma, oral, AUC0-t Median, Part 1 Cohort 5, 1800 mg QD, Cycle 1 Day 28, +DFMO 500 mg/day): 6920 ng·h/mL
Cmax ([1]; human, plasma, oral, Cmax Mean, Part 1 Cohort 1, 80 mg QD, Cycle 1 Day 28, +DFMO 500 mg/day): 16.4 ng/mL
Cmax ([1]; human, plasma, oral, Cmax Mean, Part 1 Cohort 2, 160 mg QD, Cycle 1 Day 28, +DFMO 500 mg/day): 23.7 ng/mL
Cmax ([1]; human, plasma, oral, Cmax Mean, Part 1 Cohort 3, 400 mg QD, Cycle 1 Day 28, +DFMO 500 mg/day): 55.8 ng/mL
Cmax ([1]; human, plasma, oral, Cmax Mean, Part 1 Cohort 5, 1800 mg QD, Cycle 1 Day 28, +DFMO 500 mg/day): 401 ng/mL
Cmax ([1]; human, plasma, oral, Cmax Median, Part 1 Cohort 1, 80 mg QD, Cycle 1 Day 28, +DFMO 500 mg/day): 15.1 ng/mL
Cmax ([1]; human, plasma, oral, Cmax Median, Part 1 Cohort 2, 160 mg QD, Cycle 1 Day 28, +DFMO 500 mg/day): 23.2 ng/mL
Cmax ([1]; human, plasma, oral, Cmax Median, Part 1 Cohort 3, 400 mg QD, Cycle 1 Day 28, +DFMO 500 mg/day): 20.3 ng/mL
Cmax ([1]; human, plasma, oral, Cmax Median, Part 1 Cohort 5, 1800 mg QD, Cycle 1 Day 28, +DFMO 500 mg/day): 321 ng/mL
Tmax ([1]; human, plasma, oral, Tmax Mean, Part 1 Cohort 1, 80 mg QD, Cycle 1 Day 28, +DFMO 500 mg/day): 11.3 h
Tmax ([1]; human, plasma, oral, Tmax Mean, Part 1 Cohort 2, 160 mg QD, Cycle 1 Day 28, +DFMO 500 mg/day): 4.5 h
Tmax ([1]; human, plasma, oral, Tmax Mean, Part 1 Cohort 3, 400 mg QD, Cycle 1 Day 28, +DFMO 500 mg/day): 11.3 h
Tmax ([1]; human, plasma, oral, Tmax Mean, Part 1 Cohort 5, 1800 mg QD, Cycle 1 Day 28, +DFMO 500 mg/day): 4.67 h
Tmax ([1]; human, plasma, oral, Tmax Median, Part 1 Cohort 1, 80 mg QD, Cycle 1 Day 28, +DFMO 500 mg/day): 6 h
Tmax ([1]; human, plasma, oral, Tmax Median, Part 1 Cohort 2, 160 mg QD, Cycle 1 Day 28, +DFMO 500 mg/day): 4 h
Tmax ([1]; human, plasma, oral, Tmax Median, Part 1 Cohort 3, 400 mg QD, Cycle 1 Day 28, +DFMO 500 mg/day): 6 h
Tmax ([1]; human, plasma, oral, Tmax Median, Part 1 Cohort 5, 1800 mg QD, Cycle 1 Day 28, +DFMO 500 mg/day): 4 h
Cmax ([1]; human, plasma, oral, mean Cmax, plasma AMXT 1501, n=9 patients, 1,200 mg daily split BID plus 1,000 mg daily DFMO split BID): 493 ng/mL
Cmax ([1]; human, plasma, oral, plasma AMXT 1501 Cmax with no DLTs observed, a couple of adult patients): > 1000 ng/mL
Cmax ([1]; human, plasma, oral, plasma Cmax, AMXT 1501, melanoma patient, 1,200 mg daily split BID plus 1,000 mg daily DFMO): 239 ng/mL
effect of co-administration of DFMO on PK of AMXT 1501 ([1]; patients, DFMO co-administration): no obvious effect
dose dependence of mean AMXT 1501 exposure ([1]; single or repeat PO dosing, dose levels of 160 mg and higher): increased in a dose-dependent manner
plasma AMXT 1501 level achieved ([1]; three patients in First-in-Human trial): 1,000 ng/mL
EC50 expressed per tissue weight [2]: 0.029 µg/g
EC50 ([2]; read-out: EC50 as equivalent plasma concentration): 0.028 µg/mL
